Measured values reported in article PMC11220606, “Understanding β-strand mediated protein–protein interactions: tuning binding behaviour of intrinsically disordered sequences by backbone modification” (Chemical Science, 2024).

Columns and labels:
[1] = biological target: T1, human SUMO-1_18–97 (SUMO) (Homo sapiens, UniProt P63165); assay: Temperature dependence of NMR-derived exchange parameters (Van't Hoff and Eyring analysis); type: binding; set-up: human SUMO-1_18–97 (SUMO); His tag with TEV site (N, cleaved yes); made in house; conditions: 25 °C; for TΔS, Association (activation, kon) / TΔS, Dissociation (activation, koff) / ΔG, Association (activation, kon) / ΔG, Dissociation (activation, koff) / ΔH, Association (activation, kon) / ΔH, Dissociation (activation, koff): Eyring fit, ± SD of fitted parameter (Monte-Carlo), SD
T1 sequence (P63165 18-97): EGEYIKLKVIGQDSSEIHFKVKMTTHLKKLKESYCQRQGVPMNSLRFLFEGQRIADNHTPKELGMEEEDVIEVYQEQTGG
From the text: Eyring plots were obtained for the temperature-dependence of the kon and koff rates (Fig. 5d and e), from which the association/dissociation activation enthalpies (ΔH^‡ass/ΔH^‡diss), activation/dissociation entropies (TΔS^‡ass/TΔS^‡diss), and thus activation/dissociation free energies (ΔG^‡ass/ΔG^‡diss), could be determined.

[2] = biological target: T1, human SUMO-1_18–97 (SUMO); assay: Fluorescence anisotropy competition assay (FAM-SIM tracer displacement from SUMO); conditions: for inhibitory potency relative to the parent SIM peptide (in words): fluorescence anisotropy competition assay, backbone N-methyl scan
Description: Fluorescence competition anisotropy data. The parent SIM peptide and its N-methylated variants were each
peptide (50 nM) in Tris-buffered saline (20 mM Tris, pH 8.0, 150 mM NaCl and 0.03% Triton-X).
Tris, 150 mM NaCl, 0.01 % Triton-X, pH 7.4 using 50 nM FAM PEG-SIM tracer and 3 μM SUMO protein.
Inhibitory potencies for N-methylated SIM peptides to SUMO. IC50 values were determined through competition
FA experiments (20 mm Tris, 150 mM NaCl, 0.03% Triton X, pH 8.0).
Competition binding assays were performed in triplicate within 384-well plates (Greiner Bio-one). Competitor
nM, 3 μM, 50 nM final concentrations of competitor, SUMO and tracer respectively). Control wells lacked
tracer. The plates were kept in the dark for at least 30 min before fluorescence polarisation was measured.
Labtech), with excitation at 482 nm (bandwidth = 16 nM) and emission at 530 nm (bandwidth = 40 nm). For
(bandwidth = 20 nM) and emission at 535 nm (bandwidth = 25 nm).
Perependicular (P) and parallel (S) intensities of the control wells were averaged and deducted from each
= Ssample – Sav. control). The total sample intensities (I) and anisotropies (r) were then calculated as follows:
Fluorescence anisotropy values were plotted against competitor peptide concentrations and fit to a logistic
function of the form Y = A2 + (A1 – A2) / (1 + (x/x0)p) for determination of half-maximal inhibitory concentrations
Note: To ensure a set of self-consistent IC50 values for comparison, experiments were performed using a single
batch of protein given subtle batch dependent variations in active concentration of protein.

[3] = biological target: T1, human SUMO-1_18–97 (SUMO); assay: Temperature dependence of NMR-derived exchange parameters (Van't Hoff and Eyring analysis); type: binding; set-up: human SUMO-1_18–97 (SUMO); His tag with TEV site (N, cleaved yes); made in house; conditions: 25 °C; for TΔS, Binding (KD) / ΔH, Binding (KD): Van't Hoff fit, ± SD of fitted parameter (Monte-Carlo), SD
[4] = biological target: T1, human SUMO-1_18–97 (SUMO); assay: Relaxation-based NMR binding kinetics (15N ZZ-exchange for tighter binders, CPMG relaxation dispersion for weaker binders); conditions: for koff / kon: pH 7.4
From the text: Non-overlapping exchange cross-peaks were evident for a subset of residues when the ^15N magnetizations of the bound and unbound states were mixed following t1 (^15N) evolution (ZZ-exchange spectroscopy). Global fitting of the intensities of auto and cross peaks as a function of mixing time to McConnel equations (Fig. 3c, S8–S11; ESI ^† for methods) gave apparent first-order association k^appon and first-order dissociation koff rates for binding, which were converted to kon and dissociation equilibrium constants (KD).
All NMR spectra acquired using 15N-labelled protein samples were acquired at 5 °C, in 20 mM sodium
phosphate pH 7.4, 150 mM NaCl, 0.02% NaN3, on 750 or 600 MHz Bruker NMR spectrometers.
Protein and peptide NMR spectra were processed with NMRPipe and analysed in CcpNmr analysis.
15N ZZ-exchange spectroscopy
15N ZZ-exchange experiments were performed in an interleaved manner as described previously4 using mixing
times between 10 and 500 ms. Data were fit to a simple 2-state model:
where state A represents unbound SUMO and state B represents SUMO bound to SIM. The time-evolution of
the longitudinal magnetisations during mixing are described by the corresponding McConnel equations:4
𝑧 = 𝑘𝑎𝑝𝑝𝑀𝑏𝑎 ‒ 𝑀𝑏𝑏(𝑘 + 𝑅𝑏)
𝑧 = 𝑘 𝑀𝑏𝑏 ‒ 𝑀𝑏𝑎(𝑘𝑎𝑝𝑝 + 𝑅𝑎)
where is the𝑀𝑎𝑎𝑧 z-magnetization of unbound SUMO, is the𝑀𝑏𝑏𝑧 z-magnetization of bound SUMO, and , 𝑀𝑎𝑏𝑧
𝑧 are the z-magnetizations of the corresponding exchange cross-peaks. are11 the longitudinal relaxation
rates for states A and B, and are𝑜𝑛𝑜𝑓𝑓 the pseudo-first order association and dissociation rates,
respectively. Simple analytical solutions to the above equations are available4 and were used to fit the ZZ-
exchange data. Fitting parameters included , residue𝑜𝑛𝑜𝑓𝑓 specific rates,11 and scaling factors
𝐼𝑎𝑎, 𝐼𝑏𝑏 that incorporate any differences in the relaxation rates of the bound and unbound species. Scaling
factors for the exchange cross-peaks were 𝐼𝑎𝑏, 𝐼𝑏𝑎 not included as these were absent at the start of the mixing
period in all cases. Uncertainties in the fitted parameters were calculated using a Monte-Carlo approach based
on the noise of the experiment. Fitting was performed using in-house scripts written in Python employing the
LmFit module available at https://lmfit.github.io/lmfit-py/.

Row | SMILES | IC50 [2] | Kd [4] | koff [4] | kon [4] | further results
1 | CC[C@H](C)[C@H](NC(=O)[C@H](CCC(=O)O)NC(=O)[C@H](CC(N)=O)NC(=O)[C@H](CC(=O)O)NC(C)=O)C(=O)N[C@@H](CCC(=O)O)C(=O)N[C@H](C(=O)N[C@H](C(=O)N(C)[C@H](C(=O)N[C@H](C(=O)N[C@@H](Cc1c[nH]c2ccccc12)C(=O)N[C@@H](CCC(=O)O)C(=O)N[C@@H](CCCCN)C(=O)N[C@@H](CCCCN)C(N)=O)C(C)C)[C@@H](C)CC)[C@@H](C)CC)C(C)C [Me-Ile2712, Ac-DNEIEVI(NMe)IVWEKK-NH2] | 7.9 ± 1 µM | 14.5 ± 0.9 µM | 5.9 ± 0.08 s⁻¹ | 410000 ± 28000 M⁻¹ s⁻¹ | TΔS‡ass more favourable than parent by [1]: ≈ 11 kJ mol^−1; ΔH‡ass more unfavourable than parent by [1]: ≈ 8 kJ mol^−1; TΔS, Association (activation, kon) [1]: 34.78 ± 0.502 kcal/mol; TΔS, Dissociation (activation, koff) [1]: -3.51 ± 0.048 kcal/mol; ΔG, Association (activation, kon) [1]: 6.57 ± 0.526 kcal/mol; ΔG, Dissociation (activation, koff) [1]: 15.5 ± 0.096 kcal/mol; ΔH, Association (activation, kon) [1]: 41.23 ± 0.502 kcal/mol; ΔH, Dissociation (activation, koff) [1]: 12 ± 0.072 kcal/mol; decrease in ΔGbind relative to parent [3]: 0.72 kcal/mol; increase in enthalpy (ΔHbind) in comparison to the parent SIM peptide [3]: ~2.87 kcal/mol; increase in entropy of binding (TΔSbind) in comparison to the parent SIM peptide [3]: ~3.59 kcal/mol; TΔS, Binding (KD) [3]: 38.67 ± 0.478 kcal/mol; ΔH, Binding (KD) [3]: 29.92 ± 0.048 kcal/mol; ΔΔG vs. parent (increase in affinity) ([4]; from KD values of 15N ZZ-exchange data at 5 °C): ~0.48 kcal/mol
2 | CC[C@H](C)[C@H](NC(=O)[C@@H](NC(=O)[C@H](CCC(=O)O)NC(=O)[C@H]([C@@H](C)CC)N(C)C(=O)[C@H](CCC(=O)O)NC(=O)[C@H](CC(N)=O)NC(=O)[C@H](CC(=O)O)NC(C)=O)C(C)C)C(=O)N[C@H](C(=O)N[C@H](C(=O)N[C@@H](Cc1c[nH]c2ccccc12)C(=O)N[C@@H](CCC(=O)O)C(=O)N[C@@H](CCCCN)C(=O)N[C@@H](CCCCN)C(N)=O)C(C)C)[C@@H](C)CC [Me-Ile2708] | 5.4 ± 0.3 µM | 14 ± 0.4 µM | 4.58 ± 0.04 s⁻¹ | 327000 ± 9000 M⁻¹ s⁻¹ | –
3 | CC[C@H](C)[C@H](NC(=O)[C@H](CCC(=O)O)NC(=O)[C@H](CC(N)=O)NC(=O)[C@H](CC(=O)O)NC(C)=O)C(=O)N[C@@H](CCC(=O)O)C(=O)N[C@H](C(=O)N[C@H](C(=O)N[C@H](C(=O)N[C@H](C(=O)N[C@@H](Cc1c[nH]c2ccccc12)C(=O)N[C@@H](CCC(=O)O)C(=O)N(C)[C@@H](CCCCN)C(=O)N[C@@H](CCCCN)C(N)=O)C(C)C)[C@@H](C)CC)[C@@H](C)CC)C(C)C [Me-Lys2716] | > 100 µM | 510 ± 40 µM | 553 ± 17 s⁻¹ | 1.09e+06 ± 70000 M⁻¹ s⁻¹ | TΔS, Association (activation, kon) [1]: 3.11 ± 0.048 kcal/mol; TΔS, Dissociation (activation, koff) [1]: -9.2 ± 0.024 kcal/mol; ΔG, Association (activation, kon) [1]: 8.46 ± 0.072 kcal/mol; ΔG, Dissociation (activation, koff) [1]: 13.5 ± 0.024 kcal/mol; ΔH, Association (activation, kon) [1]: 11.6 ± 0.048 kcal/mol; ΔH, Dissociation (activation, koff) [1]: 4.28 ± 0.024 kcal/mol; TΔS, Binding (KD) [3]: 12.5 ± 0.048 kcal/mol; ΔH, Binding (KD) [3]: 7.5 ± 0.048 kcal/mol
4 | CC[C@H](C)[C@H](NC(=O)[C@H](CCC(=O)O)NC(=O)[C@H](CC(N)=O)NC(=O)[C@H](CC(=O)O)NC(C)=O)C(=O)N[C@@H](CCC(=O)O)C(=O)N(C)[C@H](C(=O)N[C@H](C(=O)N[C@H](C(=O)N[C@H](C(=O)N[C@@H](Cc1c[nH]c2ccccc12)C(=O)N[C@@H](CCC(=O)O)C(=O)N[C@@H](CCCCN)C(=O)N[C@@H](CCCCN)C(N)=O)C(C)C)[C@@H](C)CC)[C@@H](C)CC)C(C)C [Me-Val2710] | > 100 µM | 388 ± 7 µM | 208 ± 1 s⁻¹ | 536000 ± 10000 M⁻¹ s⁻¹ | –
5 | CC[C@H](C)[C@H](NC(=O)[C@@H](NC(=O)[C@H](CCC(=O)O)NC(=O)[C@@H](NC(=O)[C@H](CCC(=O)O)N(C)C(=O)[C@H](CC(N)=O)NC(=O)[C@H](CC(=O)O)NC(C)=O)[C@@H](C)CC)C(C)C)C(=O)N[C@H](C(=O)N[C@H](C(=O)N[C@@H](Cc1c[nH]c2ccccc12)C(=O)N[C@@H](CCC(=O)O)C(=O)N[C@@H](CCCCN)C(=O)N[C@@H](CCCCN)C(N)=O)C(C)C)[C@@H](C)CC [Me-Glu2707] | 12.4 ± 0.8 µM | – | – | – | –
6 | CC[C@H](C)[C@H](NC(=O)[C@H](CCC(=O)O)NC(=O)[C@H](CC(N)=O)NC(=O)[C@H](CC(=O)O)NC(C)=O)C(=O)N[C@@H](CCC(=O)O)C(=O)N[C@H](C(=O)N(C)[C@H](C(=O)N[C@H](C(=O)N[C@H](C(=O)N[C@@H](Cc1c[nH]c2ccccc12)C(=O)N[C@@H](CCC(=O)O)C(=O)N[C@@H](CCCCN)C(=O)N[C@@H](CCCCN)C(N)=O)C(C)C)[C@@H](C)CC)[C@@H](C)CC)C(C)C [Me-Ile2711, Ac-DNEIEV(NMe)IIVWEKK-NH2] | > 300 µM | – | – | – | inhibitory potency relative to the parent SIM peptide (in words) [2]: significantly diminished inhibitory potency
7 | CC[C@H](C)[C@H](NC(=O)[C@H](CCC(=O)O)NC(=O)[C@H](CC(N)=O)NC(=O)[C@H](CC(=O)O)N(C)C(C)=O)C(=O)N[C@@H](CCC(=O)O)C(=O)N[C@H](C(=O)N[C@H](C(=O)N[C@H](C(=O)N[C@H](C(=O)N[C@@H](Cc1c[nH]c2ccccc12)C(=O)N[C@@H](CCC(=O)O)C(=O)N[C@@H](CCCCN)C(=O)N[C@@H](CCCCN)C(N)=O)C(C)C)[C@@H](C)CC)[C@@H](C)CC)C(C)C [Me-Asp2705] | 12.6 ± 0.5 µM | – | – | – | –
8 | CC[C@H](C)[C@H](NC(=O)[C@H](CCC(=O)O)NC(=O)[C@H](CC(N)=O)NC(=O)[C@H](CC(=O)O)NC(C)=O)C(=O)N[C@@H](CCC(=O)O)C(=O)N[C@H](C(=O)N[C@H](C(=O)N[C@H](C(=O)N[C@H](C(=O)N(C)[C@@H](Cc1c[nH]c2ccccc12)C(=O)N[C@@H](CCC(=O)O)C(=O)N[C@@H](CCCCN)C(=O)N[C@@H](CCCCN)C(N)=O)C(C)C)[C@@H](C)CC)[C@@H](C)CC)C(C)C [Me-Trp2714] | > 100 µM | – | – | – | inhibitory potency relative to the parent SIM peptide (in words) [2]: significantly diminished inhibitory potency
9 | CC[C@H](C)[C@H](NC(=O)[C@H](CCC(=O)O)NC(=O)[C@H](CC(N)=O)NC(=O)[C@H](CC(=O)O)NC(C)=O)C(=O)N[C@@H](CCC(=O)O)C(=O)N[C@H](C(=O)N[C@H](C(=O)N[C@H](C(=O)N(C)[C@H](C(=O)N[C@@H](Cc1c[nH]c2ccccc12)C(=O)N[C@@H](CCC(=O)O)C(=O)N[C@@H](CCCCN)C(=O)N[C@@H](CCCCN)C(N)=O)C(C)C)[C@@H](C)CC)[C@@H](C)CC)C(C)C [Me-Val2713] | > 100 µM | – | – | – | inhibitory potency relative to the parent SIM peptide (in words) [2]: significantly diminished inhibitory potency
10 | CC[C@H](C)[C@H](NC(=O)[C@@H](NC(=O)[C@H](CCC(=O)O)N(C)C(=O)[C@@H](NC(=O)[C@H](CCC(=O)O)NC(=O)[C@H](CC(N)=O)NC(=O)[C@H](CC(=O)O)NC(C)=O)[C@@H](C)CC)C(C)C)C(=O)N[C@H](C(=O)N[C@H](C(=O)N[C@@H](Cc1c[nH]c2ccccc12)C(=O)N[C@@H](CCC(=O)O)C(=O)N[C@@H](CCCCN)C(=O)N[C@@H](CCCCN)C(N)=O)C(C)C)[C@@H](C)CC [Me-Glu2709] | 31.4 ± 3 µM | – | – | – | –
11 | CC[C@H](C)[C@H](NC(=O)[C@H](CCC(=O)O)NC(=O)[C@H](CC(N)=O)N(C)C(=O)[C@H](CC(=O)O)NC(C)=O)C(=O)N[C@@H](CCC(=O)O)C(=O)N[C@H](C(=O)N[C@H](C(=O)N[C@H](C(=O)N[C@H](C(=O)N[C@@H](Cc1c[nH]c2ccccc12)C(=O)N[C@@H](CCC(=O)O)C(=O)N[C@@H](CCCCN)C(=O)N[C@@H](CCCCN)C(N)=O)C(C)C)[C@@H](C)CC)[C@@H](C)CC)C(C)C [Me-Asn2706] | 9.4 ± 0.5 µM | – | – | – | –
12 | CC[C@H](C)[C@H](NC(=O)[C@H](CCC(=O)O)NC(=O)[C@H](CC(N)=O)NC(=O)[C@H](CC(=O)O)NC(C)=O)C(=O)N[C@@H](CCC(=O)O)C(=O)N[C@H](C(=O)N[C@H](C(=O)N[C@H](C(=O)N[C@H](C(=O)N[C@@H](Cc1c[nH]c2ccccc12)C(=O)N[C@@H](CCC(=O)O)C(=O)N[C@@H](CCCCN)C(=O)N(C)[C@@H](CCCCN)C(N)=O)C(C)C)[C@@H](C)CC)[C@@H](C)CC)C(C)C [Me-Lys2717] | 10 ± 0.4 µM | 13.6 ± 0.5 µM | 8.95 ± 0.12 s⁻¹ | 657000 ± 27000 M⁻¹ s⁻¹ | –
13 | CC[C@H](C)[C@H](NC(=O)[C@H](CCC(=O)O)NC(=O)[C@H](CC(N)=O)NC(=O)[C@H](CC(=O)O)NC(C)=O)C(=O)N[C@@H](CCC(=O)O)C(=O)N[C@H](C(=O)N[C@H](C(=O)N[C@H](C(=O)N[C@H](C(=O)N[C@@H](Cc1c[nH]c2ccccc12)C(=O)N(C)[C@@H](CCC(=O)O)C(=O)N[C@@H](CCCCN)C(=O)N[C@@H](CCCCN)C(N)=O)C(C)C)[C@@H](C)CC)[C@@H](C)CC)C(C)C [Me-Glu2715] | 27.4 ± 1.9 µM | – | – | – | –
